Measurements as given in article PMC9926475 (ACS chemical neuroscience, 2022).
Where two headings read alike, the source gives them in different places.

How the values were obtained:
[1] = Pharmacokinetic studies in plasma and brain of mice after i.p. injection; format: in vivo, mouse; settings: for Cmax (mean ± SEM) Brain: normalized to free base dose; for Sex-dependent difference: Plasma Total exposure (AUC) / Sex-dependent difference: Brain Total exposure (AUC): standard t-test, F female, M male, NS not statistically different; for Brain level at 4 h post-treatment: females, but not males, LLOQ 5.0 ng/ml
[2] = molecular target: N-methyl-D-aspartate receptor (NMDAR); settings: cited from earlier work
male mice = assay: Forced swim test immobility time 24 h after i.p. treatment; format: in vivo, mouse; settings: for Minimal effective dose to reduce immobility time in the forced swim test: 24 h after injection; for Shape of dose response curve for forced swim test immobility: tested range up to 100 mg/kg
[3] = i.p.; ref [4]; cited from earlier work
rats = settings: 10 mg/kg, i.p., ref [26]; cited from earlier work
mice = settings: i.p., cited from earlier work
[4] = i.p. administration to mice, ref [19], cited from earlier work

| SMILES | Cmax (mean ± SEM) Brain ([1]; female CD-1 mice, i.p. 5 mg/kg) [ng/g•mg/kg] | B:P ratio (brain to plasma AUC ratio) ([1]; female mice, i.p. 5 mg/kg) | t1/2 Brain (terminal half-life) ([1]; female mice, i.p. 5 mg/kg) [min] | t1/2 Plasma (terminal half-life) ([1]; female mice, i.p. 5 mg/kg) [min] | Cmax (mean ± SEM) Brain ([1]; male CD-1 mice, i.p. 5 mg/kg) [ng/g•mg/kg] | B:P ratio (brain to plasma AUC ratio) ([1]; male mice, i.p. 5 mg/kg) | t1/2 Brain (terminal half-life) ([1]; male mice, i.p. 5 mg/kg) [min] | t1/2 Plasma (terminal half-life) ([1]; male mice, i.p. 5 mg/kg) [min] | Sex-dependent difference: Plasma Total exposure (AUC) [1] | Sex-dependent difference: Brain Total exposure (AUC) [1] | also measured |
| --- | --- | --- | --- | --- | --- | --- | --- | --- | --- | --- | --- |
| N[C@@]1(c2ccccc2Cl)CC[C@@H](O)CC1=O [(2R,5R)-HNK] | 152 ± 8.8 | 1.4 | 28 | 31 | 142 ± 5.6 | 1.2 | 27 | 30 | M > F | – | – |
| N[C@@]1(c2ccccc2Cl)C[C@@H](O)CCC1=O [(2R,4S)-HNK] | 495 ± 28.7 | 1.0 | 15 | 44 | 758 ± 21.4 | 1.1 | 32 | 39 | M > F | M > F | Brain level at 4 h post-treatment ([1]; i.p. 5 mg/kg): below LLOQs |
| N[C@]1(c2ccccc2Cl)C[C@@H](O)CCC1=O [(2S,4S)-HNK] | 234 ± 10.9 | 0.9 | 35 | 42 | 127 ± 9.5 | 0.7 | 34 | 39 | F > M | F > M | – |
| N[C@@]1(c2ccccc2Cl)CC[C@H](O)CC1=O [(2R,5S)-HNK] | 154 ± 3.9 | 1.0 | 27 | 29 | 106 ± 6.8 | 0.9 | 27 | 28 | F > M | F > M | – |
| N[C@@]1(c2ccccc2Cl)CCC[C@H](O)C1=O [(2R,6S)-HNK] | 166 ± 12.3 | 0.7 | 23 | 47 | 173 ± 5.4 | 0.6 | 43 | 55 | M > F | M > F | Ki ([2]; read-out: NMDAR binding affinity, ref [31]): > 100 µM; Minimal effective dose to reduce immobility time in the forced swim test (male mice): 1 mg/kg; Shape of dose response curve for forced swim test immobility (male mice): U-shaped dose response curves; Brain level at 4 h post-treatment ([1]; i.p. 5 mg/kg): below LLOQs; Brain Cmax and AUC compared to equivalent dosing with (2R,6R)-HNK ([1]; from Table 1): approximately two-fold lower |
| N[C@@]1(c2ccccc2Cl)CCC[C@@H](O)C1=O [(2R,6R)-HNK, (2R,6R)-hydroxynorketamine] | 530 ± 17.2 | 1.3 | 34 | 36 | 380 ± 19.3 | 1.3 | 34 | 38 | F > M | F > M | Ki ([2]; read-out: Ki, potency to bind or inhibit NMDARs, ref [4],[19],[31]-[35]): > 100 µM; Minimal effective dose to reduce immobility time in the forced swim test (male mice): 10 mg/kg; Shape of dose response curve for forced swim test immobility (male mice): did not demonstrate U-shaped dose responses; Lowest dose reducing escape failures in the learned helplessness test [3]: 3 mg/kg; Reversal of learned helplessness (rats): reversed learned helplessness; Lowest dose reducing forced swim test immobility time (mice; ref [4]): 5 mg/kg; Effect on forced swim test immobility time (mice; mice, 10 mg/kg, ref [17]): reduced forced swim test immobility time; Time of peak plasma levels ([4]; plasma collected at 2.5 and 5 min post-injection): 2.5 min; Time of peak brain levels [4]: 5 min |
| N[C@]1(c2ccccc2Cl)CC[C@@H](O)CC1=O [(2S,5R)-HNK] | 258 ± 15.4 | 1.0 | 31 | 28 | 242 ± 9.8 | 0.7 | 40 | 37 | M > F | M > F | Tmax brain ([1]; male mice, i.p. 5 mg/kg): 30 min |
